Results as given in US6906108B2, “Extracts of vetiver oil as repellent and toxicant to ants, ticks, and cockroaches” (Board of Supervisors of Louisiana State University and …, priority 2001, dated 2005).

Assays:
Format in all cases: in vivo
[1] = test system: ticks (Ixodes scapularis); assay: Tick Petri dish bioassay with treated sand (repellency and toxicity); conditions: 2.75 mg/dish
Experimental: To test the effectiveness of nootkatone against ticks, ticks (Ixodes scapularis) were collected from Idlewild, La. Nootkatone efficiacy was tested relative to a known repellent, N,N-diethyl-m-toluamide (“Deet”). REPEL®, which contains 27.55% Deet, was purchased locally from a retail garden store.
The bioassay was conducted using Petri dishes (5 cm diameter and 1 cm height). To ensure adequate moisture for the ticks, 1 ml of a hot agar solution (1.5% in H2O) was spread evenly on the inside surfaces of the Petri dish, including the top, bottom, and edges. After the agar cooled, sand that was treated as described below was spread evenly on the inside surfaces of the Petri dish. The sand was held in place by the agar.
For the treated sand, either 2 mg nootkatone or 100 mg REPEL® was initially dissolved in 2 ml ethanol, and then 200 μl of the solution was mixed with 2 g sand that had been autoclaved and cooled. The control was autoclaved sand with 200 μl ethanol only added. One half of the surfaces in the Petri dishes were covered with 2 g treated sand, and the other half with 2 g untreated sand. In the nootkatone-treated Petri dishes, the final concentration was 200 μg/dish; while in the Deet treated Petri dishes, the final concentration was 2.75 mg/dish. Control Petri dishes were prepared by covering all sides with untreated sand. One tick was added to each Petri dish, and the top replaced. The number of replicates were as follows: control, 6; nootkatone, 9; and Deet, 8. […] Repellent activity was noted if the tick was found on the untreated side of the Petri dish. The ticks in the control Petri dishes were randomly distributed on the left and right sides.
The above experiment was repeated with ticks (Ix. scapularis) collected from Hammond, La. The number of replicates in this experiment were as follows: controls, 8; nootkatone, 10; and Deet, 8.

[2] = test system: cat fleas (Ctenocephalides felis (Bouche)); assay: Cat flea Petri dish filter paper bioassay (repellency and mortality); conditions: 2.76 mg per dish
Experimental: To test the effectiveness of nootkatone against fleas, cat fleas (Ctenocephalides felis (Bouche)) were collected from a flea colony at St. Gabriel, La.
Petri dishes (5 cm diameter and 1 cm height) were prepared by lining one half of the top and the bottom with a half circle of filter paper (55 mm), and lining the other half with a second half circle of filter paper. For the treated Petri dishes, 50 mg nootkatone or 100 mg REPEL® were dissolved in 0.5 ml ethanol. […] Ten replicate Petri dishes were used for each of the treatments. The ethanol solution was added to the filter paper on the top and bottom and dried for 10 min. To place the fleas in the Petri dishes, fleas were temporarily immobilized by placing them at −20° C. for 5 min. The number of fleas in each Petri dish varied: for the 10 control Petri dishes, the average number in each dish was 10.2, with a range of 4 to 23; for 0.2 mg nootkatone, the average number in each dish was 8.5, with a range of 5 to 18; for 1 mg nootkatone, the average number in each dish was 10.6, with a range of 6 to 21; for 2 mg nootkatone, the average number in each dish was 11.1, with a range of 9 to 15 (Fleas could be counted in only 9 Petri dishes; one had too many fleas to count); and for 2.76 mg Deet, the average number in each dish was 6.7, with a range of 5 to 9.
The number of fleas on each side of each Petri dish was counted at 1 hr, 2 hr, 3 hr, 4 hr, 24 hr, 48 hr, 72 hr, and 96 hr.

[3] = test system: German cockroaches (Blattella germanica); assay: German cockroach Petri dish filter paper bioassay (repellency and toxicity)
Experimental: To test the efficacy of nootkatone against cockroaches, German cockroaches (Blattella germanica) were collected at Baton Rouge, La., the same day as the bioassay was begun.
For the bioassay, Petri dishes (10 cm diameter×1 cm) were used. The Petri dishes were prepared by lining one half of the top and one half of the bottom with a half circle of filter paper (125 mm), and lining the other half with a second half circle of filter paper. For the treated Petri dishes, 50 mg nootkatone and 300 mg REPEL® were dissolved in 2.0 ml ethanol. To each Petri dish was added either ethanol only, 30 mg Deet, 1 mg nootkatone, or 10 mg nootkatone. Ten replicate Petri dishes were used for each of the treatments. The ethanol solution was added to the filter paper on the top and bottom and dried for 10 min. One cockroach was added to each Petri dish. The length of the cockroaches varied from 1 to 1.5 cm. The dishes were then observed at 15 min, 30 min, 1 hr, 2 hr, 3 hr, 4 hr, 5 hr, 24 hr, 48 hr, and 120 hr.

[4] = 8 replicates, ticks from Hammond

## CCN(CC)C(=O)c1cccc(C)c1 [Deet, N,N-diethyl-m-toluamide, reference compound]
[1]; [4]
  Petri dishes that lost the repellent activity after 96 hr: one
  Ticks dead at 24 hr (number): one
  Ticks dead at 72 hr (number): one
  Ticks dead at 96 hr (number): four
[1]; 8 replicates, ticks from Idlewild
  Petri dishes that had lost the repellent activity after 90 hr: three
[1]; ticks from Hammond
  Ticks dead at 96 hr (percent): 50%
[1]; ticks from Idlewild
  Ticks dead after 90 hr: No ticks
[2]
  Overall activity against fleas: effective as both a repellent and a toxicant
[2]; first observation (1 hr)
  Repellent activity against fleas: showed repellent activity
[3]; 30 mg per dish
  Repellent activity against the cockroaches: no significant repellent activity
[3]; 30 mg per dish, 30 min
  Percent Repellency: 50%
[3]; 30 mg per dish, 1 hr
  Percent Repellency: 40%
[3]; 30 mg per dish, 2 hr
  Percent Repellency: 70%
[3]; 30 mg per dish, 3 hr
  Percent Repellency: 50%
[3]; 30 mg per dish, 4 hr
  Percent Repellency: 60%
[3]; 30 mg per dish, 5 hr
  Percent Repellency: 70%
[3]; 30 mg per dish, 24 hr
  Percent Repellency: 38%
[3]; 30 mg per dish, 48 hr
  Percent Repellency: 43%
[3]; 30 mg per dish, 120 hr
  Percent Repellency: 50%
[3]; any of the treatments (30 mg Deet; 1 mg or 10 mg nootkatone), up to 120 hr
  Number of cockroach deaths compared with the control: not significantly different from the control
